Marks after values point to notes of the source that are not given here.
Columns and labels:
[1] = Plasma pharmacokinetics on Day 10 after multiple doses of CTB + LED-E q8h (VNRX-7145-102 Part 3); settings: human, oral; for AUC: AUCtau; for AUC / Cmax / half-life: geometric mean (CV %)
[2] = Urinary recovery on Day 10 after multiple doses of CTB + LED-E q8h (VNRX-7145-102 Part 3); settings: urine, geometric mean (geometric CV %); for CL renal: human, oral, CLr
[3] = Plasma pharmacokinetics after single ascending doses of LED-E (VNRX-7145-101 Part 1); assay type: in vivo; settings: human, oral; for AUC(0-inf) / Cmax / half-life: geometric mean (CV %); for half-life: read-out: t1/2 (converted); for Tmax: median (range)
Method: (§1) Quantitation used separate weighted 1 /x^2 linear least-squares regression analyses generated from calibration standards. Exploratory screening for metabolites was performed for some samples. […] Single-dose plasma pharmacokinetic parameters were determined in Part 1, and both single-dose (Day 1) and multiple-dose (Day 12) parameters were determined in Part 2. […] Dose proportionality was analyzed using a power model in which pharmacokinetic exposure parameters and dose were converted to the natural log and linear regression results were reported, with the slope as the power estimate ([15]). […] In Part 2, achievement of steady-state concentrations was assessed using Tukey’s multiple comparison test for pre-dose and all dosing days (Days 2 to 10) for each dose level separately. In both studies, plasma pharmacokinetic parameters were calculated using WinNonlin (Certara; Radnor, PA), and urine pharmacokinetic parameters were calculated using SAS (SAS Institute; Cary, NC).

[4] = Urinary pharmacokinetics after single doses of LED-E; assay type: in vivo, human; settings: urine, geometric mean (geometric CV %); for CL renal: human, oral
Method: Plasma and urine pharmacokinetics samples were assayed for LED-E, LED, and CTB, as appropriate using validated bioanalytical methods. […] Quantitation used separate weighted 1 /x^2 linear least-squares regression analyses generated from calibration standards. Exploratory screening for metabolites was performed for some samples. In both studies, plasma pharmacokinetic parameters were calculated using WinNonlin (Certara; Radnor, PA), and urine pharmacokinetic parameters were calculated using SAS (SAS Institute; Cary, NC).

[5] = Plasma pharmacokinetics on Day 10 after multiple doses of LED-E q8h (VNRX-7145-101 Part 2, VNRX-7145-102 Part 2); assay type: in vivo, human; settings: for AUC / Cmax / Tmax / half-life: human, oral, plasma; for Tmax: median (range)
Method: as §1, with “Single-dose plasma pharmacokinetic parameters were determined in Part 1, and both single-dose (Day 1) and multiple-dose (Day 12) parameters were determined in Part 2.” left out, “separately. […] Plasma pharmacokinetic parameters were calculated using noncompartmental analysis of the plasma and urine concentration-time data. […] AUCinf and Cmax were natural log-transformed before analysis, using a linear mixed effects model. […]” for “separately.”

[6] = Urinary pharmacokinetics on Day 10 after multiple doses of LED-E q8h; assay type: in vivo, human; settings: urine; for CL renal: oral; for CL renal / Ae0–8 / Ae0–48: geometric mean (geometric CV %); for Ae0–8 / Ae0–48: after last dose (Day 10)
Method: Quantitation used separate weighted 1 /x^2 linear least-squares regression analyses generated from calibration standards. Exploratory screening for metabolites was performed for some samples. […] Plasma pharmacokinetic parameters were calculated using noncompartmental analysis of the plasma and urine concentration-time data. […] AUCinf and Cmax were natural log-transformed before analysis, using a linear mixed effects model. […] In both studies, plasma pharmacokinetic parameters were calculated using WinNonlin (Certara; Radnor, PA), and urine pharmacokinetic parameters were calculated using SAS (SAS Institute; Cary, NC).

[7] = Day 10, CTB 400 mg + LED-E 300 mg q8h
[8] = Day 10, CTB 400 mg + LED-E 500 mg q8h
[9] = 1000 mg, single dose LED-E 1,000 mg
[10] = Day 10, LED-E 150 mg q8h, geometric mean (CV %)
[11] = Day 10, LED-E 300 mg q8h, geometric mean (CV %)
[12] = Day 10, LED-E 500 mg q8h, geometric mean (CV %)
[13] = multiple doses LED-E 150 mg q8h
[14] = multiple doses LED-E 300 mg q8h
[15] = multiple doses LED-E 500 mg q8h

CCC(=O)N[C@H]1Cc2cccc(C(=O)O)c2OB1O [Ledaborbactam, ledaborbactam]
AUC [1, 7]: 33300 ng·h/mL
AUC [1, 8]: 62200 ng·h/mL
Cmax [1, 7]: 8470 ng/mL
Cmax [1, 8]: 16200 ng/mL
Tmax ([1]; Tmax, Day 10, CTB 400 mg + LED-E 300 mg q8h, median (range)): 1 h
half-life ([1]; t1/2, Day 10, CTB 400 mg + LED-E 300 mg q8h): 684 min
half-life ([1]; t1/2, Day 10, CTB 400 mg + LED-E 500 mg q8h): 738 min
Ae0–8 [2, 7]: 156 (11.3) mg
Ae0–8 [2, 8]: 243 (22.8)^d mg
CL renal [2, 7]: 85.8 mL/min
CL renal [2, 8]: 74.8 mL/min
AUC(0-inf) [3, 9]: 114000 ng·h/mL
Cmax [3, 9]: 26500 ng/mL
half-life [3, 9]: 678 min
Tmax [3, 9]: 2 h
AUC(0-inf) ([3]; single dose LED-E 100 mg): 15400 ng·h/mL
Cmax ([3]; single dose LED-E 100 mg): 4010 ng/mL
half-life ([3]; single dose LED-E 100 mg): 332 min
AUC(0-inf) ([3]; single dose LED-E 200 mg): 26200 ng·h/mL
Cmax ([3]; single dose LED-E 200 mg): 5970 ng/mL
half-life ([3]; single dose LED-E 200 mg): 366 min
AUC(0-inf) ([3]; single dose LED-E 300 mg): 33100 ng·h/mL
Cmax ([3]; single dose LED-E 300 mg): 7570 ng/mL
half-life ([3]; single dose LED-E 300 mg): 449 min
AUC(0-inf) ([3]; single dose LED-E 500 mg): 69300 ng·h/mL
Cmax ([3]; single dose LED-E 500 mg): 16800 ng/mL
half-life ([3]; single dose LED-E 500 mg): 678 min
AUC(0-inf) ([3]; single dose LED-E 800 mg): 125000 ng·h/mL
Cmax ([3]; single dose LED-E 800 mg): 24000 ng/mL
half-life ([3]; single dose LED-E 800 mg): 515 min
Tmax ([3]; single dose LED-E 800 mg): 2 h
CL renal ([4]; single dose LED-E 300 mg): 66.3 mL/min
CL renal ([4]; single dose LED-E 500 mg): 53.3 mL/min
CL renal ([4]; single dose LED-E 800 mg): 58.7 mL/min
CL renal ([4]; single dose LED-E 1000 mg): 75.5 mL/min
Ae0–8 ([4]; single dose LED-E 300 mg): 113 (23.3) mg
Ae0–48 ([4]; single dose LED-E 300 mg): 131 (20.3) mg
Ae0–8 ([4]; single dose LED-E 500 mg): 190 (14.1) mg
Ae0–48 ([4]; single dose LED-E 500 mg): 220 (12.2) mg
Ae0–8 ([4]; single dose LED-E 800 mg): 364 (6.14) mg
Ae0–48 ([4]; single dose LED-E 800 mg): 438 (3.3) mg
Ae0–8 ([4]; single dose LED-E 1000 mg): 459 (16.6) mg
Ae0–48 ([4]; single dose LED-E 1000 mg): 515 (16.9) mg
Steady-state plasma concentrations reached by ([5]; LED-E q8h dosing): ≤ 3 days
AUC ([5]; Day 10, LED-E 75 mg q8h, 0 to 8 h post-dose, geometric mean (CV %)): 13900 ng·h/mL
Cmax ([5]; Day 10, LED-E 75 mg q8h, geometric mean (CV %)): 3690 ng/mL
Tmax ([5]; Day 10, LED-E 75 mg q8h): 1 h
AUC [5, 10]: 20800 ng·h/mL
Cmax [5, 10]: 5870 ng/mL
Tmax ([5]; Day 10, LED-E 150 mg q8h): 0.75 h
AUC [5, 11]: 40900 ng·h/mL
Cmax [5, 11]: 11600 ng/mL
Tmax ([5]; Day 10, LED-E 300 mg q8h): 1.13 h
AUC [5, 12]: 70000 ng·h/mL
Cmax [5, 12]: 15800 ng/mL
half-life ([5]; 75 mg, Day 10, LED-E 75 mg q8h, geometric mean (CV %), read-out: t1/2 (converted)): 558 min
half-life ([5]; 150 mg, Day 10, LED-E 150 mg q8h, geometric mean (CV %), read-out: t1/2 (converted)): 684 min
half-life ([5]; 300 mg, Day 10, LED-E 300 mg q8h, geometric mean (CV %), read-out: t1/2 (converted)): 678 min
half-life ([5]; 500 mg, Day 10, LED-E 500 mg q8h, geometric mean (CV %), read-out: t1/2 (converted)): 750 min
half-life ([5]; Day 10, after 10 days of q8h dosing, across dose groups, read-out: Terminal half-life (t1/2) in plasma): 660 to 720 min
CL renal ([6]; human, multiple doses LED-E 75 mg q8h): 44.2 mL/min
CL renal ([6]; human, multiple doses LED-E 150 mg q8h): 51.8 mL/min
CL renal ([6]; human, multiple doses LED-E 300 mg q8h): 51.5 mL/min
CL renal ([6]; human, multiple doses LED-E 500 mg q8h): 82 mL/min
bioavailability ([6]; human, after oral dosing of LED-E, inferred from urinary excretion): ≥ 68%
Ae0–8 ([6]; multiple doses LED-E 75 mg q8h): 43.1 (6.95) mg
Ae0–48 ([6]; multiple doses LED-E 75 mg q8h): 51.6 (7.80) mg
Ae0–48 ([6]; multiple doses LED-E 75 mg q8h, listed as LED): 51.6 mg
Ae0–8 [6, 13]: 73.1 (10.0) mg
Ae0–48 [6, 13]: 86.6 (11.1) mg
Ae0–8 [6, 14]: 137 (34.2) mg
Ae0–48 [6, 14]: 166 (27.8) mg
Ae0–8 [6, 15]: 283 (7.8) mg
Ae0–48 [6, 15]: 345 (11.2) mg
Ae0–48 ([6]; multiple doses LED-E 500 mg q8h, listed as LED): 345 mg
